From PMC10007777, “Glycyrrhizic acid inhibits myeloid differentiation of hematopoietic stem cells by binding S100 calcium binding protein A8 to improve cognition in aged mice” (Immunity & Ageing : I & A, 2023)

Target: T1, S100A8 protein (S100 calcium binding protein A8; MRP-8) (Mus musculus, UniProt P27005)
T1 construct: amine-coupled to CM5 (COOH) chip
T1 sequence (P27005 2-89): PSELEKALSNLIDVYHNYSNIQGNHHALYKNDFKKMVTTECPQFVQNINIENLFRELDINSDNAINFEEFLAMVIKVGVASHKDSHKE
Test: SPR (BIAcore […]), S100A8 immobilized
Conditions: 20 mM Tris-HCl, 150 mM NaCl, 1 mM TCEP, pH 7.2, 25 C; GA 0-500 uM

CC1(C)[C@@H](O[C@H]2O[C@H](C(=O)O)[C@@H](O)[C@H](O)[C@H]2O[C@@H]2O[C@H](C(=O)O)[C@@H](O)[C@H](O)[C@H]2O)CC[C@]2(C)[C@H]3C(=O)C=C4[C@@H]5C[C@@](C)(C(=O)O)CC[C@]5(C)CC[C@@]4(C)[C@]3(C)CC[C@@H]12 [GA, Glycyrrhizic acid]
binding (SPR): The experimental results show binding between GA and S100A8 protein (Fig. 5E).
